# Several values for one entry are separate records, joined by “and”; a condition that tells them apart may be missing. Equal values may be shown once.
# Experiments:
# [1] = HepG2 cytotoxicity assay (Live/Dead staining); conditions: human, HepG2 cells
# Procedure, shortened: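 HepG2 cells (5000/well) treated with compounds at 1 to 20 µM, re-dosed with fresh compound every 24 h. Viability scored at 72 h by calcein-AM/ethidium homodimer (1 µM each, 10 min, 37 °C) live/dead staining under fluorescence microscopy.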
# [2] = tested on: primary human hepatocytes; experiment: Nuclear counts (DAPI) in P. vivax-infected primary hepatocytes as measure of toxicity; assay type: cell-based; conditions: two technical replicates
# Procedure: (§1) Accordingly, we applied dose–response curves of all the tested NMTs on parasite isolates 2 and 3 over concentrations up to 20 µM (Fig. 5c, d, Source Data file). […] Nuclei were counted in each well using DAPI staining as a measure of toxicity (Supplementary Fig. 86, Supplementary Source data). We used the phosphatidylinositol 4-kinase inhibitor (PI4Ki), MMV390048, as a positive control for eliminating schizonts[37],[38].
# Plasmodium vivax liver stage assays were performed as described previously. Cryopreserved primary human hepatocytes (Cat No. F00995-P) and hepatocyte culture medium (HCM) (InVitroGroTM CP Medium) were obtained from Bioreclamation IVT, Inc., (Baltimore, MD, USA). Briefly, we seeded 384-well plates with primary hepatocytes from a single donor lot at a density of 25,000 cells per well. We then infected the hepatocytes with 14,000 freshly hand-dissected sporozoites per well. Cells were exposed to the compounds at indicated concentrations from day 5 post-infection. We used Pi4K inhibitor MMV390048, at 20 µM, as a positive control to eliminate P. vivax liver schizonts. We then proceeded to feed cultures every day, replacing the compounds until day 8 post-infection. Cells were fixed with 4% PFA, permeabilized with 1% Triton X-100, blocked with 2% BSA, and stained with DAPI and PvUIS4 antibodies to detect schizonts and hypnozoites forms by confocal microscopy. […] DAPI was diluted 1:2000. The images were processed, analyzed and outlier cells were removed using IMARIS (Bitplane Inc.) image analysis software.
# Supplementary Fig. 86. […] Nuclear […]
# counts, normalized to DMSO controls, for NMT inhibitors across a dose response. Counts were ob-tained using DAPI staining from the P. vivax-infected wells quantified in Fig. 5d. Error bars represent the standard deviation of two technical replicates.
# (1 picture or pasted object on this page, not shown here)
# P. vivax schizonts = experiment: P. vivax liver stage assay, schizonts; assay type: cell-based, Plasmodium vivax; conditions: for Number of liverstage Schizonts per well: 20 µM, 8 dpi; for IC50: Plasmodium vivax, Hepatocyte, 120 h, primary human hepatocytes, treatment day 5 to 8 post-infection, isolates 2 and 3
# Procedure: We next evaluated the candidate compounds against liver-stage P. vivax (Fig. 5). P. vivax sporozoites were obtained from three independent patient isolates and cultured in primary human hepatocytes from a single donor lot using a 384-well microculture system as described previously. Cells were infected and treated with NMTis at 20 µM beginning day 5 post-infection until day 8 when the infection rates were quantified by fluorescent microscopy.
# as §1, with “file). We observed similar kinetics for all inhibitors, with a gradual decrease in parasite load upon increasing the drug concentration.” for “file).”
# Plasmodium vivax liver stage assays were performed as described previously. Cryopreserved primary human hepatocytes (Cat No. F00995-P) and hepatocyte culture medium (HCM) (InVitroGroTM CP Medium) were obtained from Bioreclamation IVT, Inc., (Baltimore, MD, USA). Briefly, we seeded 384-well plates with primary hepatocytes from a single donor lot at a density of 25,000 cells per well. We then infected the hepatocytes with 14,000 freshly hand-dissected sporozoites per well. Cells were exposed to the compounds at indicated concentrations from day 5 post-infection. We used Pi4K inhibitor MMV390048, at 20 µM, as a positive control to eliminate P. vivax liver schizonts. We then proceeded to feed cultures every day, replacing the compounds until day 8 post-infection. Cells were fixed with 4% PFA, permeabilized with 1% Triton X-100, blocked with 2% BSA, and stained with DAPI and PvUIS4 antibodies to detect schizonts and hypnozoites forms by confocal microscopy. For antibody dilutions, PvUIS4 (kind gift from Dr. Noah Sather, Seattle Children’s Research Institute) was diluted 1:250 and the secondary antibody was anti-mouse AlexaFluor-594 (Cat # A-11005; RRID: AB_2534073) diluted 1:1000. DAPI was diluted 1:2000. The images were processed, analyzed and outlier cells were removed using IMARIS (Bitplane Inc.) image analysis software.
# [3] = isolate 1, technical replicates (Fig. 5b)
# [4] = isolate 2, technical replicates (Fig. 5b)
# [5] = isolate 3, technical replicates (Fig. 5b)
Structure (SMILES),IC50 at 48 h [1],Nucleus counts per well ([2]; 1 uM),Nucleus counts per well ([2]; 2.5uM),Nucleus counts per well ([2]; 5 uM),Nucleus counts per well ([2]; 10uM),"Nucleus counts per well ([2]; 20uM, P. vivax-infected wells)",Number of liverstage Schizonts per well (P. vivax schizonts; [3]),Number of liverstage Schizonts per well (P. vivax schizonts; [4]),Number of liverstage Schizonts per well (P. vivax schizonts; [5]),"Schizonts per well (P. vivax schizonts; Isolate 2, 1.25 uM)","Schizonts per well (P. vivax schizonts; Isolate 2, 2.5 uM)","Schizonts per well (P. vivax schizonts; Isolate 2, 5 uM)","Schizonts per well (P. vivax schizonts; Isolate 3, 1.25 uM)","Schizonts per well (P. vivax schizonts; Isolate 3, 2.5 uM)","Schizonts per well (P. vivax schizonts; Isolate 3, 5 uM)","Schizonts per well (P. vivax schizonts; Isolate 3, 10 uM)",IC50 (P. vivax schizonts),"schizonts (fold change to DMSO) mean diff (P. vivax schizonts; isolate 1, 20 µM)","schizonts (fold change to DMSO) mean diff (P. vivax schizonts; isolate 2, 20 µM)","schizonts (fold change to DMSO) mean diff (P. vivax schizonts; isolate 3, 20 µM)",also measured
Cc1nn(C)c(C)c1CCOc1cc(F)ccc1-c1cccc(N2CCNCC2)c1 [Compound 12f],> 20 µM,15280 per well and 15770 per well,15290 per well and 15210 per well,15170 per well and 14310 per well,14300 per well and 15260 per well,13150 per well and 16410 per well,0 per well,1 per well and 0 per well (2×),3 per well and 2 per well,12 per well and 13 per well and 17 per well,10 per well and 9 per well and 15 per well,8 per well and 9 per well and 11 per well,11 per well,10 per well and 12 per well,7 per well and 5 per well,3 per well and 5 per well,3.3 to 4.3 µM,1.000,0.9811,0.8295,"Schizonts per well (P. vivax schizonts; Isolate 3, 20 uM (Fig. 5c-d)): 3 per well and 2 per well"
c1cncc(CCOc2cccnc2-c2cccc(N3CCNCC3)c2)c1 [Compound 12g],> 20 µM,14940 per well and 14730 per well,14740 per well and 14990 per well,14960 per well and 13600 per well,13740 per well and 14770 per well,11770 per well and 13000 per well,0 per well,3 per well and 4 per well and 6 per well,3 per well,10 per well and 11 per well and 19 per well,11 per well and 12 per well and 16 per well,6 per well and 8 per well and 11 per well,13 per well and 11 per well,7 per well and 6 per well,8 per well and 4 per well,5 per well,2.2 to 3.1 µM,1.000,0.7547,0.7955,"Schizonts per well (P. vivax schizonts; Isolate 2, 20 uM (Fig. 5c-d)): 3 per well and 4 per well and 6 per well; Schizonts per well (P. vivax schizonts; Isolate 3, 20 uM (Fig. 5c-d)): 3 per well"
c1cncc(CCOc2ccccc2-c2ccnc(N3CCNCC3)c2)c1 [Compound 12j],> 20 µM,16280 per well and 14580 per well,10950 per well and 12190 per well,11170 per well and 12350 per well,12430 per well and 11110 per well,10860 per well and 12840 per well,0 per well (2×) and 1 per well,2 per well and 0 per well and 1 per well,4 per well and 3 per well,15 per well and 18 per well and 14 per well,13 per well and 11 per well,11 per well and 12 per well and 13 per well,11 per well and 19 per well,12 per well and 16 per well,8 per well and 11 per well,6 per well and 9 per well,4.9 to 6 µM,0.983,0.9434,0.7614,"Schizonts per well (P. vivax schizonts; Isolate 3, 20 uM (Fig. 5c-d)): 4 per well and 3 per well"
Fc1ccc(-c2ccnc(N3CCNCC3)c2)c(OCCc2cccnc2)c1 [Compound 12l],> 20 µM,15910 per well and 14650 per well,13010 per well and 13310 per well,13030 per well and 13070 per well,13130 per well and 13070 per well,11440 per well and 13460 per well,0 per well (2×) and 1 per well,4 per well and 7 per well and 1 per well,2 per well and 7 per well,11 per well and 13 per well and 18 per well,11 per well and 12 per well,6 per well and 8 per well and 9 per well,12 per well and 19 per well,8 per well and 16 per well,7 per well and 13 per well,5 per well and 9 per well,2.9 to 4.7 µM,0.983,0.7736,0.6932,–
Cc1nn(C)c(C)c1CCOc1ccccc1-c1cccc(OCCN(C)C)c1 [Compound 26b],> 20 µM,14910 per well and 16840 per well,13670 per well and 14610 per well,13920 per well and 13020 per well,12600 per well and 13580 per well,11600 per well and 12490 per well,0 per well (2×) and 5 per well,3 per well and 4 per well and 0 per well,3 per well and 8 per well,12 per well and 19 per well and 15 per well,9 per well and 7 per well and 12 per well,10 per well and 8 per well and 6 per well,11 per well and 13 per well,9 per well and 12 per well,8 per well and 12 per well,6 per well and 11 per well,3.1 to 4.1 µM,0.917,0.8679,0.625,"Schizonts per well (P. vivax schizonts; Isolate 2, 10 uM): 7 per well and 4 per well and 5 per well"

# Source: publication PMC10480161, “Identification of potent and selective N-myristoyltransferase inhibitors of Plasmodium vivax liver stage hypnozoites and schizonts” (Nature Communications, 2023)
